Counter-ions that a name gives are not always drawn.
Assays:
Type in all cases: biochemical
sPLA2-X protein = target: T1, sPLA2-X protein (Homo sapiens, UniProt O15496); test: sPLA2-X enzyme inhibition assay (thio-PC substrate, DTNB detection, absorbance 410 nm); parameters: made in house; host or cells: E. coli; settings: class symbols; read-out: sPLA2 Type X Inhibition (IC50; nM)
T1 sequence (O15496 43-165): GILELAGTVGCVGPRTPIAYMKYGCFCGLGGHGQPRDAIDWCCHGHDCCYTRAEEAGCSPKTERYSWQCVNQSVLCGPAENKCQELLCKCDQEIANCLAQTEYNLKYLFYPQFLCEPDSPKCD
From the text: (§1) Screening Compounds for Inhibition of sPLA2-X, sPLA2-V, and sPLA2-IIA Enzyme Activity
(§2) These sPLA2 enzymes hydrolyze the sn-2 acyl chains of glycerophospholipids, resulting in the release of a free fatty acid and a lysophospholipid. In the case of the thio-PC substrate, this enzymatic hydrolysis results in a free sulfhydryl group remaining on the lysophospholipid. This free sulfhydryl reacts with DTNB to produce the chromogenic product 5-nitro-2-thiobenzoic acid (TNB) which can be quantitated by absorbance at 410 nm. The amount of TNB produced reflects the hydrolytic activity of the enzyme.
(§3) The recombinant human sPLA2 groups IIA, V, and X enzymes were expressed in E. coli and purified to >90% purity by standard biochemical methods.
(§4) Procedure of Enzyme Inhibition for sPLA2-X • 1. […] Dilute the test compounds in 100% DMSO by half-log steps in a 96-well dilution plate using columns 1-11 (one compound per row). Column 12 contains DMSO alone with no compound. • 3. Prepare a 3.5 mM thio-PC substrate solution by drying down 7.2 mg of stock thio-PC in ethanol under a gentle stream of N2 gas. When dry, add 4 mL assay buffer (25 mM Tris, pH7.4; 100 mM KCl; 10 mM CaCl2; 0.1% Triton X-100) and warm in a 37° C. water bath for 20 minutes with intermittent vortexing. • 4. Prepare an “enzyme containing” reaction mix with the following components: 20.4 mL assay buffer; 2 mL DTNB (20 mM in 800 mM Tris, pH8.0); and 11.8 mg recombinant human sPLA2-X enzyme (>95% pure) diluted to a total of 0.8 mL assay buffer. • 5. Prepare a “no enzyme” reaction mix with the following components: 477 μL assay buffer and 45 μL DTNB. • 6. Dispense 58 μL “no enzyme” reaction mix into each of 8 wells (columns 23 and 24, rows M-P). • 7. Dispense 58 μL “enzyme containing” reaction mix into all remaining wells on the plate. • 8. From the 96-well compound dilution plate, add 2 μL from each well for each compound to each of 4 wells with “enzyme containing” reaction mix. Columns 23 and 24 on the assay plate will contain only DMSO (vehicle control). […] After compound addition, mix the contents of each well to ensure that the DMSO is evenly distributed in the well. • 9. Cover the plate and incubate in the dark at room temperature for 15 minutes. • 10. Add 10 μL of thio-PC substrate to all wells. The final concentration of thio-PC in the reactions is 0.5 mM. • 11. Cover the plate and incubate in the dark at room temperature for 30 minutes. • 12. Measure the absorbance of all wells at 410 nm. • 13. Determine the mean absorbance of the “no enzyme” wells. Subtract this value from the absorbance values determined for all other wells (these are now background corrected data). • 14. […] Procedure of Enzyme Inhibition for sPLA2-V • 1. […] Dilute the test compounds in 100% DMSO by half-log steps in a 96-well dilution plate using columns 1-11. Column 12 contains DMSO alone with no compound. • 3. Prepare a 3.5 mM thio-PC substrate solution by drying down 7.2 mg of stock thio-PC in ethanol under a gentle stream of N2 gas. When dry, add 4 mL assay buffer (25 mM Tris, pH7.4; 100 mM KCl; 10 mM CaCl2; 0.1% Triton X-100) and warm in a 37° C. water bath for 20 minutes with intermittent vortexing. • 4. Prepare an “enzyme containing” reaction mix with the following components: 20.4 mL assay buffer; 2 mL DTNB (20 mM in 800 mM Tris, pH8.0); and 12 mg recombinant human sPLA2-V enzyme (>95% pure) diluted to a total of 0.8 mL assay buffer. • 5. Prepare a “no enzyme” reaction mix with the following components: 477 μL assay buffer and […]. • 6. Dispense 58 μL “no enzyme” reaction mix into each of 8 wells (columns 23 and 24, rows M-P). • 7. Dispense 58 μL “enzyme containing” reaction mix into all remaining wells on the plate. • 8. From the 96-well compound dilution plate, add 2 μL from each well for each compound to each of 4 wells with “enzyme containing” reaction mix. Columns 23 and 24 on the assay plate will contain only DMSO (vehicle control).

[1] = target: T2, recombinant human sPLA2-IIA enzyme (Homo sapiens, UniProt P14555); test: sPLA2-IIA enzyme inhibition assay (thio-PC substrate, DTNB detection, absorbance 410 nm); settings: class symbols; read-out: sPLA2 Type IIa Inhibition (IC50; nM)
T2 construct: made in house; host or cells: E. coli
T2 sequence (P14555 21-144): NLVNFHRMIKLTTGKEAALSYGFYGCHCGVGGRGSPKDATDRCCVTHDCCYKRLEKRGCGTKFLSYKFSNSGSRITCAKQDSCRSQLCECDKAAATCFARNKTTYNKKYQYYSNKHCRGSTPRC
From the text: as §1, §2, §3, §4

[2] = target: T3, recombinant human sPLA2-V enzyme (Homo sapiens, UniProt P39877); test: sPLA2-V enzyme inhibition assay (thio-PC substrate, DTNB detection, absorbance 410 nm); settings: class symbols; read-out: sPLA2 Type V Inhibition (IC50; nM)
T3 construct: made in house; host or cells: E. coli
T3 sequence (P39877 21-138): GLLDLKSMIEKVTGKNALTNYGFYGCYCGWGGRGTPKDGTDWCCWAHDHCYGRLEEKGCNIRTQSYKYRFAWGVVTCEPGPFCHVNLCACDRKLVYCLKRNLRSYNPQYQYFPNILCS
From the text: as §1, §2, §3, §4

Row | SMILES | IC50 (sPLA2-X protein) [nM] | IC50 [1] [nM] | IC50 [2] [nM]
1 | C/C(=C\C(=O)O)c1cccc(-n2c(C(N)=O)cc3ccc(OC(F)(F)F)cc32)n1 [Compound 6, (E)-3-(6-(2-carbamoyl-6-(trifluoromethoxy)-1H-indol-1-yl)pyridin-2-yl)but-2-enoic acid] | > 200 | > 1000 | > 5000
2 | NC(=O)c1sc2ccc(OC(F)(F)F)cc2c1-c1ccc2c(c1)C(CC(=O)O)CO2 (stereo not drawn) [Compound 7, 2-(5-(2-carbamoyl-5-(trifluoromethoxy)benzo[b]thiophen-3-yl)-2,3-dihydrobenzofuran-3-yl)acetic acid] | > 200 | > 1000 | > 5000
3 | CC(C)(Cc1cccc(-n2c(C(N)=O)cc3ccc(OC(F)(F)F)cc32)n1)C(=O)O [Compound 8, 3-(6-(2-carbamoyl-6-(trifluoromethoxy)-1H-indole-1-yl)pyridin-2-yl)-2,2-dimethylpropanoic acid] | 50 to 200 | > 1000 | > 5000
4 | CC(C)(C)OC(=O)N1CC(CC(=O)O)c2cc(-n3c(C(N)=O)cc4ccc(OC(F)(F)F)cc43)ccc21 (stereo not drawn) [Compound 11, 2-(1-(tert-butoxycarbonyl)-5-(2-carbamoyl-6-(trifluoromethoxy)-1H-indol-1-yl)indolin-3-yl)acetic acid] | 50 to 200 | > 1000 | > 5000
5 | NC(=O)c1sc2ccccc2c1-c1cccc(CCC(=O)O)c1 [Compound 13, 3-(3-(2-carbamoylbenzo[b]thiophen-3-yl)phenyl)propanoic acid] | > 200 | > 1000 | > 5000
6 | CNC(=O)c1cc2ccc(OC(F)(F)F)cc2n1-c1cccc(CCC(=O)O)c1 [Compound 14, 3-(3-(2-(methylcarbamoyl)-6-(trifluoromethoxy)-1H-indol-1-yl)phenyl)propanoic acid] | > 200 | > 1000 | > 5000
7 | NC(=O)c1oc2ccc(OC(F)(F)F)cc2c1-c1cccc(CCC(=O)O)c1 [Compound 17, 3-(3-(2-carbamoyl-5-(trifluoromethoxy)benzofuran-3-yl)phenyl)propanoic acid] | > 200 | > 1000 | > 5000
8 | NC(=O)c1cc2ccc(OC(F)(F)F)cc2n1-c1cccc(CCC(=O)O)n1 [Compound 18, 3-(6-(2-carbamoyl-6-(trifluoromethoxy)-1H-indol-1-yl)pyridin-2-yl)propanoic acid] | < 20 | > 1000 | 1500 to 5000
9 | NC(=O)c1cc2ccccc2n1-c1cccc(CCC(=O)O)c1 [Compound 21, 3-(3-(2-carbamoyl-1H-indol-1-yl)phenyl)propanoic acid] | > 200 | > 1000 | > 5000

Now from value to compound:

Row | IC50 (sPLA2-X protein) [nM] | IC50 [1] [nM] | IC50 [2] [nM] | SMILES
10 | 50 to 200 | > 1000 | > 5000 | NC(=O)c1cc2ccc(OC(F)(F)F)cc2n1-c1ccc2c(c1)C(CC(=O)O)CO2 (stereo not drawn) [Compound 1, 2-(5-(2-carbamoyl-6-(trifluoromethoxy)-1H-indol-1-yl)-2,3-dihydrobenzofuran-3-yl)acetic acid]
11 | < 20 | 200 to 500 | 500 to 1500 | CC(C)(Sc1cccc(-n2c(C(N)=O)cc3ccc(OC(F)(F)F)cc32)c1)C(=O)O [Compound 2, 2-((3-(2-carbamoyl-6-(trifluoromethoxy)-1H-indol-1-yl)phenyl)thio)-2-methylpropanoic acid]
12 | < 20 | 500 to 1000 | 1500 to 5000 | CC(C)(Cc1cccc(-n2c(C(N)=O)cc3ccc(OC(F)(F)F)cc32)c1)C(=O)O [Compound 3, 3-(3-(2-carbamoyl-6-(trifluoromethoxy)-1H-indol-1-yl)phenyl)-2,2-dimethylpropanoic acid]
13 | < 20 | 200 to 500 | < 500 | NC(=O)c1cc2ccc(OC(F)(F)F)cc2n1-c1cccc(SC2(C(=O)O)CCC2)c1 [Compound 4, 1-((3-(2-carbamoyl-6-(trifluoromethoxy)-1H-indol-1-yl)phenyl)thio)cyclobutane-1-carboxylic acid]
14 | > 200 | > 1000 | > 5000 | NC(=O)c1cc2ccc(OC(F)(F)F)cc2n1-c1ccc2c(c1)OCC2CC(=O)O (stereo not drawn) [Compound 9, 2-(6-(2-carbamoyl-6-(trifluoromethoxy)-1H-indol-1-yl)-2,3-dihydrobenzofuran-3-yl)acetic acid]
15 | 20 to 50 | 500 to 1000 | 500 to 1500 | NC(=O)c1cc2ccc(OC(F)(F)F)cc2n1-c1cccc(CC2(C(=O)O)CCC2)c1 [Compound 10, 1-(3-(2-carbamoyl-6-(trifluoromethoxy)-1H-indol-1-yl)benzyl)cyclobutane-1-carboxylic acid]
16 | 50 to 200 | > 1000 | > 5000 | NC(=O)c1cc2ccc(OC(F)(F)F)cc2n1-c1ccc2occ(CC(=O)O)c2c1 [Compound 12, 2-(5-(2-carbamoyl-6-(trifluoromethoxy)-1H-indol-1-yl)benzofuran-3-yl)acetic acid]
17 | 50 to 200 | > 1000 | > 5000 | NC(=O)c1cc2ccc(OC(F)(F)F)cc2n1-c1ccc2oc(C(=O)O)cc2c1 [Compound 16, 5-(2-carbamoyl-6-(trifluoromethoxy)-1H-indol-1-yl)benzofuran-2-carboxylic acid]
18 | > 200 | > 1000 | > 5000 | NC(=O)c1cc2ccc(OC(F)(F)F)cc2n1-c1cccc(CC2(C(=O)O)CC2)c1 [Compound 19, 1-(3-(2-carbamoyl-6-(trifluoromethoxy)-1H-indol-1-yl)benzyl)cyclopropane-1-carboxylic acid]
19 | > 200 | > 1000 | > 5000 | NC(=O)c1cc2ccc(OC(F)(F)F)cc2n1-c1ccc2occ(C(=O)O)c2c1 [Compound 20, 5-(2-carbamoyl-6-(trifluoromethoxy)-1H-indol-1-yl)benzofuran-3-carboxylic acid]
20 | < 20 | > 1000 | 1500 to 5000 | CC(C)(CC(=O)O)c1cccc(-n2c(C(N)=O)cc3ccc(OC(F)(F)F)cc32)c1 [Compound 22, 3-(3-(2-carbamoyl-6-(trifluoromethoxy)-1H-indol-1-yl)phenyl)-3-methylbutanoic acid]
21 | > 200 | > 1000 | > 5000 | NC(=O)c1cc2ccc(OC(F)(F)F)cc2n1-c1cccc(C[C@@H](N)C(=O)O)c1 [Compound 23, (R)-2-amino-3-(3-(2-carbamoyl-6-(trifluoromethoxy)-1H-indol-1-yl)phenyl)propanoic acid TFA salt]

From patent US20260034111A1, “NOVEL HETEROCYCLES AS sPLA2-X INHIBITORS” (Cayman Chemical Company Incorporated, priority 2022, published 2026)
